The structures appear in SMILES notation. Where a SMILES comes first, the peptide text is derived from it. [ ]: non-standard residue; d: D form. The star is where a group is joined. Bip = N[C@@H](Cc1ccc(-c2ccccc2)cc1)C(=O)O; Pip = O=C(O)[C@@H]1CCCCN1; Nle = CCCC[C@H](N)C(=O)O; Orn = NCCC[C@H](N)C(=O)O; Abu = CC[C@H](N)C(=O)O; Cbz = O=C(OCc1ccccc1)*; Boc = CC(C)(C)OC(=O)*; Aib = CC(C)(N)C(=O)O; Sar = CNCC(=O)O Where only a bound is given, the exact number is not on record here.

For this assay, the target named is T1, Solute carrier family 15 member 1 (Homo sapiens, UniProt P46059).
T1 sequence (P46059 whole entry): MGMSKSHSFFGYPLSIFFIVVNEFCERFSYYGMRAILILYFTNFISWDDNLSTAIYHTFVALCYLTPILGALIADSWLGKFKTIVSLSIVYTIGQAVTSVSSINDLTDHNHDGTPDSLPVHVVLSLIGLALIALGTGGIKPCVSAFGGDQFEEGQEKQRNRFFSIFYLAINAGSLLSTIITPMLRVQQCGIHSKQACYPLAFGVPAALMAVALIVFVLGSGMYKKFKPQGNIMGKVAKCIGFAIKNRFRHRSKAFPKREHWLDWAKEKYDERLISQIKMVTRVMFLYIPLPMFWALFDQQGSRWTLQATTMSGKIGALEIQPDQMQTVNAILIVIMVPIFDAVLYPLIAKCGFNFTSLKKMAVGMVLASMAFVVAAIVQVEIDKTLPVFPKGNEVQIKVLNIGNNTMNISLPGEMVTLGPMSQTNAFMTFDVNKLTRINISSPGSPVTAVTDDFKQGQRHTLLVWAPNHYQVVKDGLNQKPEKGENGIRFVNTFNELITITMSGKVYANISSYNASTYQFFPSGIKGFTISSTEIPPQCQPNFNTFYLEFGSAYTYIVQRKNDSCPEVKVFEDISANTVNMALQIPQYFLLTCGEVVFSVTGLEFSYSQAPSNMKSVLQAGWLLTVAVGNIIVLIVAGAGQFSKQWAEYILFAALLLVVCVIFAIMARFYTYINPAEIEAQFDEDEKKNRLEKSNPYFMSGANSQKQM
As to the kind of experiment: Inhibition constant (Ki) for human intestinal peptide carrier.
Turning to `C[C@H](NC(=O)[C@H](C)NC(=O)OC(C)(C)C)C(=O)O` (Boc-Ala-Ala-OH), the inhibition constant Ki – broadly, a dissociation constant, usually derived from enzyme kinetics or from competition with a known ligand – is more than 30000 µM.
For the compound `CC(N)C(=O)Nc1cccc(C(=O)O)c1` (stereo unspecified), the Ki came out at 310 µM.
Compound `CC(=O)N[C@@H](C)C(=O)N[C@@H](C)C(=O)O` (Ac-Ala-Ala-OH) showed a Ki of more than 30000 µM.
For `CC(NC(=O)CCN)C(=O)O` (stereo unspecified) the value was 4800 µM; for `CC(C)[C@H](N)C(=O)N1CCC[C@H]1C(=O)O` (H-Val-Pro-OH), 60 µM.
For `O=C(O)[C@H](Cc1ccc(O)cc1)NC(=O)[C@@H]1CCCN1` (H-Pro-Tyr-OH) the value was 730 µM.
On to `CC(N)C(=O)NCc1ccccc1` (stereo unspecified), for which the inhibition constant (Ki) was found to be 14100 µM.
Compound `N[C@@H](CS)C(=O)NCC(=O)O` displayed a Ki of 200 µM.
As for `CC[C@H](NC(=O)[C@H](C)N)C(=O)O` (H-Ala-[Abu]-OH), the Ki stood at 70 µM.
Turning to `C[C@H](NC(=O)[C@@H](N)Cc1ccc(-c2ccccc2)cc1)C(=O)O` (H-[Bip]-Ala-OH), the Ki was determined as 20 µM.
Next, `C[C@H](NC(=O)[C@@H]1CCCN1)C(=O)O` (H-Pro-Ala-OH): 9500 µM.
For `CC(C)C[C@H](N)C(=O)N1CCC[C@H]1C(=O)O` (H-Leu-Pro-OH) the value was 110 µM; for `C[C@H](NC(=O)[C@@H](N)Cc1ccc(Cc2ccccc2)cc1)C(=O)O`, 20 µM.
For `CN(CC(=O)O)C(=O)CN` [GLYCYLSARCOSINE] (H-Gly-[Sar]-OH) the value was 830 µM; for `NCCC(=O)NCCC(=O)O`, more than 30000 µM.
The compound `CCCC[C@H](NC(=O)[C@H](C)N)C(=O)O` (H-Ala-[Nle]-OH) gave a Ki of 90 µM.
Next, `CCC(C)C(N)C(=O)N1CCCCC1` (stereo unspecified): 5620 µM; `CNCC(=O)N(C)CC(=O)O`: 32000 µM; `NCC(=O)N[C@@H](CC(=O)O)C(=O)O` (H-Gly-Asp-OH): 350 µM.
Compound `CC(N)C(=O)Nc1ccccc1-c1ccccc1` (stereo unspecified) came in with a Ki of 16600 µM.
For `C[C@@H](N)C(=O)N1CCC[C@H]1C(=O)O` (stereo in doubt; 69) the value was 15100 µM; for `C[C@H](N)C(=O)N[C@H](C)C(=O)O` (H-Ala-[dA]-OH), 4200 µM; for `CC(N)C(=O)Nc1cccc(-c2ccccc2)c1` (stereo unspecified), 290 µM.
In turn, `CC(NC(=O)CN)C(=O)O` (stereo unspecified) registered a Ki of 380 µM. This Ki and that of the compound before are within 1.5-fold of each other.
For `CC(C)C[C@H](NC(=O)[C@@H]1CCCN1)C(=O)O` (H-Pro-Leu-OH) the value was 470 µM.
`C[C@@H](NC(=O)[C@@H](N)CC(=O)O)C(=O)OCc1ccccc1` yielded a Ki of 8300 µM. This Ki lies about 18-fold higher than the previous one.
Next, `CC(N)C(=O)NC1CCCCC1` (stereo unspecified): 1500 µM; `CC(NC(=O)[C@H](N)Cc1ccc(OCc2ccccc2)cc1)C(=O)O` (stereo partly specified): 1400 µM.
`C[C@H](NC(=O)[C@@H](N)CC(=O)O)C(N)=O` (H-Asp-Ala-NH2): the inhibition constant (Ki) was determined as 5400 µM.
Next, `CC(N)C(=O)Nc1ccccc1C(=O)O` (stereo unspecified): 2800 µM; `C[C@H](NC(=O)[C@@H](N)Cc1c[nH]cn1)C(=O)O` (H-His-Ala-OH): 480 µM; `CC1NC(=O)C(CCCN)NC1=O` (stereo unspecified): 2300 µM.
The compound `CCC(C)C(N)C(=O)N1CCSC1` (stereo unspecified) had a Ki of 6300 µM.
For `CCCC[C@H](N)C(=O)N1CCC[C@H]1C(=O)O` (H-[Nle]-Pro-OH) the value was 160 µM; for `C[C@@H](N)C(=O)N1CCC[C@H]1C(=O)O` (stereo in doubt; 56), 4900 µM.
Next, `CC(NC(=O)C(N)Cc1ccc(OCc2ccccc2)cc1)C(=O)O` (stereo unspecified): 10 µM; `N[C@@H](Cc1ccc(O)cc1)C(=O)N1CCC[C@H]1C(=O)O` (H-Tyr-Pro-OH): 160 µM; `N[C@@H](Cc1ccccc1)C(=O)N[C@@H](Cc1ccccc1)C(=O)O` (H-Phe-Phe-OH): 110 µM.
For `C[C@H](N)C(=O)N[C@@H](Cc1c[nH]cn1)C(=O)O` (H-Ala-His-OH) the value was 330 µM; for `C[C@H](N)C(=O)N(C)CC(=O)O` (H-Ala-[Sar]-OH), 250 µM.
As to `CC(N)C(=O)Nc1ccc(C(=O)O)cc1` (stereo unspecified), the affinity, expressed as Ki, was 9100 µM. This Ki is about 36-fold higher than that of the compound before.
For `CC(C)[C@H](N)C(=O)N[C@@H](C)C(=O)O` (H-Val-Ala-OH) the value was 90 µM; for `CC(N)C(=O)N1CCCCC1` (stereo unspecified), 12900 µM.
Take `CC(N)C(=O)Nc1ccccc1Cl` (stereo unspecified): the Ki was 7800 µM.
Next, `C[C@H](NC(=O)[C@@H](N)CCC(=O)O)C(=O)O` (H-Glu-Ala-OH): 250 µM.
Turning to `NCC(=O)N1CCC[C@H]1C(=O)O` [GLYCYL PROLINE] (H-Gly-Pro-OH), the Ki came out at 300 µM. This Ki and that of the compound before are within 1.5-fold of each other.
For `O=C(O)CNC(=O)[C@@H]1CCCN1` (H-Pro-Gly-OH) the value was 22000 µM.
Next, `C[C@H](N)C(=O)N[C@@H](CCCN)C(=O)O` (H-Ala-[Orn]-OH): 980 µM; `COC(=O)c1ccccc1NC(=O)C(C)N` (stereo unspecified): 890 µM.
For `C[C@H](NC(=O)[C@@H](N)CO)C(=O)O` (H-Ser-Ala-OH), the affinity corresponds to a Ki of 140 µM. This Ki lies about 6.4-fold lower than the previous one.
`C[C@H](NC(=O)[C@@H](C)N)C(=O)O` (H-[dA]-Ala-OH): the affinity corresponds to a Ki of 2000 µM.
For `C[C@H](N)C(=O)N[C@@H](Cc1ccc(Cc2ccccc2)cc1)C(=O)O` the value was 120 µM; for `CC(N)C(=O)N1CCSC1` (stereo unspecified), 11000 µM.
Consider `C[C@H](N)C(=O)N1CCCC[C@H]1C(=O)O` (H-Ala-[Pip]-OH), for which the Ki turned out to be 60 µM.
Next, `C[C@H](N)C(=O)N[C@@H](CO)C(=O)O` (H-Ala-Ser-OH): 140 µM; `C[C@H](N)C(=O)N[C@@H](CCC(=O)O)C(=O)O` (H-Ala-Glu-OH): 320 µM; `C[C@H](NC(=O)[C@@H](N)Cc1ccc(O)cc1)C(=O)O`: 90 µM.
Compound `CC(N)C(=O)Nc1c(F)c(F)c(F)c(F)c1F` (stereo unspecified) yielded a Ki of 3100 µM. Against the preceding compound, the Ki is about 34-fold higher.
`C[C@H](NC(=O)[C@@H](N)CC(=O)O)C(=O)O` (H-Asp-Ala-OH) gave a Ki of 320 µM. Against the preceding compound, the Ki is about 9.7-fold lower.
The compound `CC(C)CC(NC(=O)C(O)C(N)Cc1ccccc1)C(=O)O` (stereo unspecified) yielded a Ki of 400 µM. The Ki values of the last two compounds are within 1.5-fold of each other.
For `CC(N)C(=S)N1CCCC1C(=O)O` (stereo unspecified) the value was 330 µM.
For `N[C@@H](Cc1ccc(O)cc1)C(=O)N[C@@H](Cc1ccccc1)C(=O)O` (H-Tyr-Phe-OH) the value was 90 µM.
For `CN(CC(=O)O)C(=O)[C@@H](N)Cc1ccccc1` the value was 210 µM; for `CC1NC(=O)C(CCCCN)NC1=O` (stereo unspecified), 5400 µM; for `N[C@@H](Cc1ccccc1)C(=O)N1CCC[C@H]1C(=O)O` (H-Phe-Pro-OH), 130 µM.
`N[C@@H](CCC(=O)O)C(=O)N1CCC[C@H]1C(=O)O` (H-Glu-Pro-OH): the Ki came out at 140 µM.
In turn, `Cc1cccc(NC(=O)C(C)N)c1` (stereo unspecified) returned a Ki of 410 µM.
As for `N[C@@H](CC(=O)O)C(=O)N[C@@H](CC(=O)O)C(=O)O` (H-Asp-Asp-OH), affinity was put at a Ki of 410 µM.
For the compound `C[C@H](NC(=O)[C@H](C)NC(=O)OCc1ccccc1)C(=O)O` (Cbz-Ala-Ala-OH), the Ki worked out at 5600 µM. This Ki is about 14-fold higher than that of the compound before.
Next, `C[C@H](N)C(=O)NC(C)(C)C(=O)O` (H-Ala-[Aib]-OH): 1200 µM.
For `CC(N)C(=O)Nc1ccc(Cl)cc1` (stereo unspecified) the value was 330 µM; for `Cc1ccc(NC(=O)C(C)N)cc1` (stereo unspecified), 340 µM.
As for `C[C@@H](N)C(=O)N1CCC[C@@H]1C(=O)O`, the Ki was more than 30000 µM.
Next, `COC(=O)c1ccc(NC(=O)C(C)N)cc1` (stereo unspecified): 1100 µM.
For `CC(N)C(=O)Nc1ccccc1` (stereo unspecified) the value was 2900 µM; for `CC(N)C(=O)Nc1cccc(Cl)c1` (stereo unspecified), 460 µM.

These data come from ChEMBL document CHEMBL1145942, “Three-dimensional quantitative structure-activity relationship analyses of peptide substrates of the mammalian H+/peptide cotransporter PEPT1” (J Med Chem, 2003).
